# Measurements from PMC8887546, “Design and Synthesis of Brain Penetrant Glycopeptide Analogues of PACAP With Neuroprotective Potential for Traumatic Brain Injury and Parkinsonism” (Frontiers in drug discovery, 2022).
# How the values were obtained:
# Assay type in all cases: cell-based
# [1] = biological target: T1, human PAC1 receptor (Homo sapiens, UniProt P41586); assay: cAMP stimulation in CHO cells expressing PAC1; details: for Emax: CHO
# T1 construct: expressed in transfected cells; host or cells: CHO cells (G418 selection)
# T1 sequence (P41586 21-468): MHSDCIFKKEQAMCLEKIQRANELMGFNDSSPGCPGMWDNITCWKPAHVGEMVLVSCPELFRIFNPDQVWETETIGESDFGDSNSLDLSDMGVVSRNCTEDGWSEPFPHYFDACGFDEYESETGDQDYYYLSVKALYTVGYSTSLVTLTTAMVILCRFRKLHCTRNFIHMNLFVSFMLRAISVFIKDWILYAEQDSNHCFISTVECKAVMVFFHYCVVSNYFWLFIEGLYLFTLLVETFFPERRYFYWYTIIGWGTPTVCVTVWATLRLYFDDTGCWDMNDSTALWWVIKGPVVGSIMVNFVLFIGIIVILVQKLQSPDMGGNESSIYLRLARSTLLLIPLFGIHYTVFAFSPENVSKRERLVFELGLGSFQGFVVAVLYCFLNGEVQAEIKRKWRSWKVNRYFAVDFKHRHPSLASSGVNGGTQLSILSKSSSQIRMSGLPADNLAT
# Description: (§1) Briefly, human PAC1, VPAC1, and VPAC2 receptors expressed in CHO cells were used for all experiments. Cells were grown in 50:50 DMEM-F12 medium with 10% heat-inactivated fetal bovine serum, 1X penicillin-streptomycin supplement, and 500 μg/ml G418 (neomycin) to maintain selection (all from ThermoFisher) at 37°C with 5% CO2 atmosphere. For the cAMP assay, cells were seeded at 20,000 cells/well in a 96 well plate, recovered overnight, then serum starved for 4 h. The cells were then incubated with 500 μM IBMX for 20 min, followed by agonist concentration curves in 500 μM IBMX media for 10 min. The reaction was terminated, boiled, then collected, followed by competition with 7 μg of bovine protein kinase A (Sigma-Aldrich) and ∼1 pmol of ^3H-cAMP (PerkinElmer). The assay was incubated at room temp for 1 h, then collected onto GF/B filter plates and the data read using a MicroBeta2 scintillation counter (PerkinElmer).
# [2] = biological target: T2, human VPAC1 receptor (Homo sapiens, UniProt P32241); assay: cAMP stimulation in CHO cells expressing VPAC1; details: for Emax: CHO, read-out: VPAC1 Emax; for EC50: read-out: VPAC1 EC50; for Receptor selectivity ratio VPAC1/PAC1: ratio of cAMP EC50 values
# T2 construct: expressed in transfected cells; host or cells: CHO cells (G418 selection)
# T2 sequence (P32241 31-457): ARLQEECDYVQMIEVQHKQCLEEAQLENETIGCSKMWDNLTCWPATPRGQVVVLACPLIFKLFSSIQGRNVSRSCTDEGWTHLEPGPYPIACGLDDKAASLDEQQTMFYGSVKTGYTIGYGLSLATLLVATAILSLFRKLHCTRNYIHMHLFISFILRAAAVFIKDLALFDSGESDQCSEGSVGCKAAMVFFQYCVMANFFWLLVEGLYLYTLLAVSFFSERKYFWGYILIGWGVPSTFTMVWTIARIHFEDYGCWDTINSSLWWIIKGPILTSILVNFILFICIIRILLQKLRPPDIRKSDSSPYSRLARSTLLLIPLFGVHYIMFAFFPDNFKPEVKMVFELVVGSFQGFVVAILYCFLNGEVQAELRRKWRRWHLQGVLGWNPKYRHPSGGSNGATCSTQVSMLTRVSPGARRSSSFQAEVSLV
# [3] = biological target: T3, human VPAC2 receptor (Homo sapiens, UniProt P41587); assay: cAMP stimulation in CHO cells expressing VPAC2; details: for Emax: CHO; for Receptor selectivity ratio VPAC2/PAC1 / Receptor selectivity ratio VPAC2/VPAC1: ratio of cAMP EC50 values
# T3 construct: expressed in transfected cells; host or cells: CHO cells (G418 selection)
# T3 sequence (P41587 24-438): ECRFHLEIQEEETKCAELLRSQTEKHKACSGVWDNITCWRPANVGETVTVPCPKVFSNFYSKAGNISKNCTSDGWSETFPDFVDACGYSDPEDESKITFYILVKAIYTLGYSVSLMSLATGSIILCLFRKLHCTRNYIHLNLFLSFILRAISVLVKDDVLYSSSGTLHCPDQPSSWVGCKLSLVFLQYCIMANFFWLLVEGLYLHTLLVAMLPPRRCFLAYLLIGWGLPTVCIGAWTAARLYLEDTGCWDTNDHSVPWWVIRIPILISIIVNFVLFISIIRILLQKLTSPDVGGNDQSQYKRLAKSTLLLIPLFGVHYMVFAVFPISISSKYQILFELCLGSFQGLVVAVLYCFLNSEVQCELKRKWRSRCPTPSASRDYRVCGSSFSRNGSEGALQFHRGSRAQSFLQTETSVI
# Description: as §1
compound,measurement,setting,value
CCCC[C@H](NC(=O)CN(C)C(=O)[C@H](CC(=O)O)NC(=O)[C@@H](CO)NC(=O)[C@H](Cc1c[nH]cn1)NC(C)=O)C(=O)N[C@@H](Cc1ccccc1)C(=O)N[C@H](C(=O)N[C@@H](CC(=O)O)C(=O)N[C@@H](CO)C(=O)N[C@@H](Cc1ccc(O)cc1)C(=O)N[C@@H](CO)C(=O)N[C@@H](CCCNC(=N)N)C(=O)N[C@@H](Cc1ccc(O)cc1)C(=O)N[C@@H](CCCNC(=N)N)C(=O)N[C@@H](CCCCN)C(=O)N[C@@H](CCC(N)=O)C(=O)N[C@@H](CCC)C(=O)N[C@@H](C)C(=O)N[C@H](C(=O)N[C@@H](CCCCN)C(=O)N[C@@H](CCCCN)C(=O)N[C@@H](Cc1ccc(O)cc1)C(=O)N[C@@H](CC(C)C)C(=O)N[C@@H](C)C(=O)N[C@@H](C)C(=O)N[C@H](C(=O)N[C@@H](CC(C)C)C(=O)N[C@@H](CO[C@@H]1O[C@H](CO)[C@@H](O)[C@H](O)[C@H]1O)C(N)=O)C(C)C)C(C)C)[C@@H](C)O [Ac-CRA 3018],EC50,[1],> 2500 nM
same,Emax,[1],35%
same,Emax,[2],36%
same,EC50,[2],415 nM
same,EC50,[3],> 2500 nM
same,Emax,[3],31%
CCC[C@H](NC(=O)[C@H](CCC(N)=O)NC(=O)[C@H](CCCCN)NC(=O)[C@H](CCCNC(=N)N)NC(=O)[C@H](Cc1ccc(O)cc1)NC(=O)[C@H](CCCNC(=N)N)NC(=O)[C@H](CO)NC(=O)[C@H](Cc1ccc(O)cc1)NC(=O)[C@H](CO)NC(=O)[C@H](CC(=O)O)NC(=O)[C@@H](NC(=O)[C@H](Cc1ccccc1)NC(=O)[C@H](C)NC(=O)CNC(=O)[C@H](CC(=O)O)NC(=O)[C@@H](CO)NC(=O)[C@@H](N)Cc1c[nH]cn1)[C@@H](C)O)C(=O)N[C@@H](C)C(=O)N[C@H](C(=O)N[C@@H](CCCCN)C(=O)N[C@@H](CCCCN)C(=O)N[C@@H](Cc1ccc(O)cc1)C(=O)N[C@@H](CC(C)C)C(=O)N[C@@H](C)C(=O)N[C@@H](C)C(=O)N[C@H](C(=O)N[C@@H](CC(C)C)C(=O)N[C@@H](CO[C@@H]1O[C@H](CO)[C@@H](O)[C@H](O)[C@H]1O)C(N)=O)C(C)C)C(C)C [CRA 3014],EC50,[1],205 nM
same,Emax,[1],79%
same,Emax,[2],122%
same,Receptor selectivity ratio VPAC1/PAC1,[2],0.64
same,EC50,[2],132 nM
same,EC50,[3],2650 nM
same,Emax,[3],122%
same,Receptor selectivity ratio VPAC2/PAC1,[3],12.95
same,Receptor selectivity ratio VPAC2/VPAC1,[3],20.11
CC[C@H](C)[C@H](NC(=O)CNC(=O)[C@H](CC(=O)O)NC(=O)[C@H](CO)NC(=O)[C@@H](N)Cc1c[nH]cn1)C(=O)N[C@@H](Cc1ccccc1)C(=O)N[C@H](C(=O)N[C@@H](CC(=O)O)C(=O)N[C@@H](CO)C(=O)N[C@@H](Cc1ccc(O)cc1)C(=O)N[C@@H](CO)C(=O)N[C@@H](CCCNC(=N)N)C(=O)N[C@@H](Cc1ccc(O)cc1)C(=O)N[C@@H](CCCNC(=N)N)C(=O)N[C@@H](CCCCN)C(=O)N[C@@H](CCC(N)=O)C(=O)N[C@@H](CC(C)C)C(=O)N[C@@H](C)C(=O)N[C@H](C(=O)N[C@@H](CCCCN)C(=O)N[C@@H](CCCCN)C(=O)N[C@@H](Cc1ccc(O)cc1)C(=O)N[C@@H](CC(C)C)C(=O)N[C@@H](C)C(=O)N[C@@H](C)C(=O)N[C@H](C(=O)N[C@@H](CC(C)C)C(=O)N[C@@H](CO[C@@H]1O[C@H](CO)[C@@H](O)[C@H](O)[C@H]1O)C(=O)N[C@@H](CO[C@@H]1O[C@H](CO)[C@@H](O)[C@H](O)[C@H]1O)C(N)=O)C(C)C)C(C)C)[C@@H](C)O [Compound 2LS140],EC50,[1],2.23 nM
same,Emax,[1],102%
same,Emax,[2],108%
same,Receptor selectivity ratio VPAC1/PAC1,[2],1.37
same,EC50,[2],3.06 nM
same,EC50,[3],156 nM
same,Emax,[3],106%
same,Receptor selectivity ratio VPAC2/PAC1,[3],69.96
same,Receptor selectivity ratio VPAC2/VPAC1,[3],50.98
CC[C@H](C)[C@H](NC(=O)CNC(=O)[C@H](CC(=O)O)NC(=O)[C@H](CO)NC(=O)[C@H](Cc1c[nH]cn1)NC(C)=O)C(=O)N[C@@H](Cc1ccccc1)C(=O)N[C@H](C(=O)N[C@@H](CC(=O)O)C(=O)N[C@@H](CO)C(=O)N[C@@H](Cc1ccc(O)cc1)C(=O)N[C@@H](CO)C(=O)N[C@@H](CCCNC(=N)N)C(=O)N[C@@H](Cc1ccc(O)cc1)C(=O)N[C@@H](CCCNC(=N)N)C(=O)N[C@@H](CCCCN)C(=O)N[C@@H](CCC(N)=O)C(=O)N[C@@H](CC(C)C)C(=O)N[C@@H](C)C(=O)N[C@H](C(=O)N[C@@H](CCCCN)C(=O)N[C@@H](CCCCN)C(=O)N[C@@H](Cc1ccc(O)cc1)C(=O)N[C@@H](CC(C)C)C(=O)N[C@@H](C)C(=O)N[C@@H](C)C(=O)N[C@H](C(=O)N[C@@H](CC(C)C)C(=O)N[C@@H](CO[C@@H]1O[C@H](CO)[C@@H](O[C@@H]2O[C@H](CO)[C@H](O)[C@H](O)[C@H]2O)[C@H](O)[C@H]1O)C(N)=O)C(C)C)C(C)C)[C@@H](C)O [Ac-2LS132],EC50,[1],2.8 nM
same,Emax,[1],96%
same,Emax,[2],98%
same,Receptor selectivity ratio VPAC1/PAC1,[2],0.79
same,EC50,[2],2.2 nM
same,EC50,[3],27.2 nM
same,Emax,[3],101%
same,Receptor selectivity ratio VPAC2/PAC1,[3],9.71
same,Receptor selectivity ratio VPAC2/VPAC1,[3],12.36
CCC[C@H](NC(=O)[C@H](CCC(N)=O)NC(=O)[C@H](CCCCN)NC(=O)[C@H](CCCNC(=N)N)NC(=O)[C@H](Cc1ccc(O)cc1)NC(=O)[C@H](CCCNC(=N)N)NC(=O)[C@H](CO)NC(=O)[C@H](Cc1ccc(O)cc1)NC(=O)[C@H](CO)NC(=O)[C@H](CC(=O)O)NC(=O)[C@@H](NC(=O)[C@H](Cc1ccccc1)NC(=O)[C@@H](NC(=O)CCCCNC(=O)[C@H](CC(=O)O)NC(=O)[C@@H](CO)NC(=O)[C@@H](N)Cc1c[nH]cn1)[C@@H](C)CC)[C@@H](C)O)C(=O)N[C@@H](C)C(=O)N[C@H](C(=O)N[C@@H](CCCCN)C(=O)N[C@@H](CCCCN)C(=O)N[C@@H](Cc1ccc(O)cc1)C(=O)N[C@@H](CC(C)C)C(=O)N[C@@H](C)C(=O)N[C@@H](C)C(=O)N[C@H](C(=O)N[C@@H](CC(C)C)C(=O)N[C@@H](CO[C@@H]1O[C@H](CO)[C@@H](O)[C@H](O)[C@H]1O)C(N)=O)C(C)C)C(C)C [CRA 3009],EC50,[1],412 nM
same,Emax,[1],75%
same,Emax,[2],125%
same,Receptor selectivity ratio VPAC1/PAC1,[2],1.86
same,EC50,[2],767 nM
same,EC50,[3],> 2500 nM
same,Emax,[3],55%
CCCC[C@@H](NC(=O)CNC(=O)[C@H](CC(=O)O)NC(=O)[C@@H](CO)NC(=O)[C@@H](N)Cc1c[nH]cn1)C(=O)N[C@@H](Cc1ccccc1)C(=O)N[C@H](C(=O)N[C@@H](CC(=O)O)C(=O)N[C@@H](CO)C(=O)N[C@@H](Cc1ccc(O)cc1)C(=O)N[C@@H](CO)C(=O)N[C@@H](CCCNC(=N)N)C(=O)N[C@@H](Cc1ccc(O)cc1)C(=O)N[C@@H](CCCNC(=N)N)C(=O)N[C@@H](CCCCN)C(=O)N[C@@H](CCC(N)=O)C(=O)N[C@@H](CCC)C(=O)N[C@@H](C)C(=O)N[C@H](C(=O)N[C@@H](CCCCN)C(=O)N[C@@H](CCCCN)C(=O)N[C@@H](Cc1ccc(O)cc1)C(=O)N[C@@H](CC(C)C)C(=O)N[C@@H](C)C(=O)N[C@@H](C)C(=O)N[C@H](C(=O)N[C@@H](CC(C)C)C(=O)N[C@@H](CO[C@@H]1O[C@H](CO)[C@@H](O)[C@H](O)[C@H]1O)C(N)=O)C(C)C)C(C)C)[C@@H](C)O [CRA3019],EC50,[1],847 nM
same,Emax,[1],65%
same,Emax,[2],72%
same,Receptor selectivity ratio VPAC1/PAC1,[2],0.77
same,EC50,[2],649 nM
same,EC50,[3],> 2500 nM
same,Emax,[3],74%
